In patent US20090069320A1, “Substituted 4-Amino-Quinazoline Compounds with Metabotropic Glutamate Receptor Regulating Activity and Uses Thereof” (Gruenenthal GmbH, priority 2006, published 2009):
Where a name gives a salt, the structure may show the parent alone.

Each molecule was assayed against T1, mGluR5 receptor (Sus scrofa, UniProt I3LUI7) (assay: [3H]-MPEP mGluR5 receptor binding assay (pig brain homogenate)). Details: 5 nM [3H]-MPEP, read-out: IC50 mGluR5 Receptor (pig) [^3H]-MPEP Bond.
T1 construct: 450 μg of protein from brain homogenate with 5 nM ^3[H]-MPEP; from tissue; host or cells: pig brain halves without medulla, cerebellum and pons
In short: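 Compounds at 10 μM competed with 5 nM [3H]-MPEP for binding to pig brain membranes (450 μg protein) for 60 min at room temperature in pH 8.0 Hepes buffer. Bound radioactivity was collected on glass-fibre filters and read by β-counting, with 10 μM unlabelled MPEP giving non-specific binding.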

T1 sequence (I3LUI7 19-1212): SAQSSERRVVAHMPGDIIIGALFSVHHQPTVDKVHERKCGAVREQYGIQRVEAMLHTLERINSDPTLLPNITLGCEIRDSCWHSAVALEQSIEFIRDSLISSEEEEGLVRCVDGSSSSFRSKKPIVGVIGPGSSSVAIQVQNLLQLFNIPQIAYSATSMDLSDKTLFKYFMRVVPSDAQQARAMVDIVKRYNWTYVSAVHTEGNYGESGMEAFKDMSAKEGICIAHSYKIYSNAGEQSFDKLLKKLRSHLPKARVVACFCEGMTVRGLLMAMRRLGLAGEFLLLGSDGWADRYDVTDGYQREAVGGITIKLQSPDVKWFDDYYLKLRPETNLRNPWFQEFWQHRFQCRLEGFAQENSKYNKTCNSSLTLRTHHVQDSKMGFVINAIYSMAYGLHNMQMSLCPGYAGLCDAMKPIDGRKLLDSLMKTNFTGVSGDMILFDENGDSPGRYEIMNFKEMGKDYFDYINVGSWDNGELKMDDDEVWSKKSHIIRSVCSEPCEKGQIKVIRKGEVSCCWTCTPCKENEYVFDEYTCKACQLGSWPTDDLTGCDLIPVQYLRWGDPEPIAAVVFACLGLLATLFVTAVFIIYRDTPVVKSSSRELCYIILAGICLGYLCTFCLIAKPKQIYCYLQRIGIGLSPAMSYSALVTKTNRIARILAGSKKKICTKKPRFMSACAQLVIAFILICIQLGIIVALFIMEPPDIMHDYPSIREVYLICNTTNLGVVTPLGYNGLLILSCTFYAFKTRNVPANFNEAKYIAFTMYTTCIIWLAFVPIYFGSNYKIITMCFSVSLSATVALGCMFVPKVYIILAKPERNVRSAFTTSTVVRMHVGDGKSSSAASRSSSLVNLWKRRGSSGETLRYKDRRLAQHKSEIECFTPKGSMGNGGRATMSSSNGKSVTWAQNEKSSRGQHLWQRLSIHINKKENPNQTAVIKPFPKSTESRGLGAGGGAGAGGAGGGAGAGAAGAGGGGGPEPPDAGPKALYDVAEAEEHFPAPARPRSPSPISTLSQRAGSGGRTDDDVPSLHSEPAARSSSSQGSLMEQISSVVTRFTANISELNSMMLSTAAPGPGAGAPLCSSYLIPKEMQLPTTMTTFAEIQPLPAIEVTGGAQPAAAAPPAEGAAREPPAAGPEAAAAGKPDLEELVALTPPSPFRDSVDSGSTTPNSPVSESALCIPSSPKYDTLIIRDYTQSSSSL

SMILES	IC50
N#CCC(=O)N(Cc1cc(-c2ccc3ncnc(NC4CC4)c3c2)ccc1F)C1CC1 [Example 281, 2-cyano-N-cyclopropyl-N-(5-(4-(cyclopropylamino)quinazolin-6-yl)-2-fluorobenzyl)acetamide hydrochloride]	30 nM
O=C(CC(F)(F)F)N(Cc1cc(-c2ccc3ncnc(NC4CC4)c3c2)ccc1F)C1CC1 [Example 282, N-cyclopropyl-N-(5-(4-(cyclopropylamino)quinazolin-6-yl)-2-fluorobenzyl)-3,3,3-trifluoropropanamide]	50 nM
O=C(CCl)N(Cc1cc(-c2ccc3ncnc(NC4CC4)c3c2)ccc1F)C1CC1 [Example 283, 2-chloro-N-cyclopropyl-N-(5-(4-(cyclopropylamino)quinazolin-6-yl)-2-fluorobenzyl)acetamide]	290 nM
CCCCNc1ncnc2ccc(-c3cccc(CN4C(=O)CCC4=O)c3)cc12 [Example 286, 1-(3-(4-(butylamino)quinazolin-6-yl)benzyl)pyrrolidine-2,5-dione hydrochloride]	390 nM
O=C1CCC(=O)N1Cc1cccc(-c2ccc3ncnc(NC4CCCC4)c3c2)c1 [Example 287, 1-(3-(4-(cyclopentylamino)quinazolin-6-yl)benzyl)pyrrolidine-2,5-dione hydrochloride]	60 nM
c1cc(CNC2CC2)cc(-c2ccc3ncnc(NC4CC4)c3c2)c1 [Example 294, N-cyclopropyl-6-(3-((cyclopropylamino)methyl)-phenyl)quinazoline-4-amine]	8670 nM
COc1ccc(-c2ccc3ncnc(NC4CC4)c3c2)cc1CNC1CC1 [Example 298, N-cyclopropyl-6-(3-((cyclopropylamino)methyl)-4-methoxyphenyl)quinazoline-4-amine]	10800 nM
Fc1ccc(-c2ccc3ncnc(NC4CC4)c3c2)cc1CNC1CC1 [Example 299, N-cyclopropyl-6-(3-((cyclopropylamino)methyl)-4-fluorophenyl)quinazoline-4-amine]	2010 nM
Fc1ccc(-c2ccc3ncnc(NC4CC4)c3c2)c(F)c1CNC1CC1 [Example 304, N-cyclopropyl-6-(3-((cyclopropylamino)methyl)-2,4-difluorophenyl)quinazoline-4-amine]	3110 nM
CC(C)(C)Nc1ncnc2ccc(-c3ccc(F)c(CNC4CC4)c3)cc12 [Example 322, N-tert-butyl-6-(3-((cyclopropylamino)methyl)-4-fluorophenyl)quinazoline-4-amine]	2980 nM

Same assay, conditions: 10 μM compound, 5 nM [3H]-MPEP

SMILES	% Inhibition of mGluR5 Receptor (pig) [^3H]-MPEP Bond at 10 μM
O=S(=O)(c1ccccc1)N(Cc1cc(-c2ccc3ncnc(NC4CC4)c3c2)ccc1F)C1CC1 [Example 368, N-cyclopropyl-N-(5-(4-(cyclopropylamino)quinazolin-6-yl)-2-fluorobenzyl)benzole sulfonamide]	85%

Same assay, conditions: 10 μM compound, 5 nM [3H]-MPEP, read-out: % Inhibition of mGluR5 Receptor (pig) [^3H]-MPEP Bond at 10 μM

SMILES	inhibition at 10 µM
O=C1CCC(=O)N1Cc1cccc(-c2ccc3nc(NCc4ccccc4)nc(NC4CC4)c3c2)c1 [Example 291, 1-(3-(2-(benzylamino)-4-(cyclopropylamino)quinazolin-6-yl)benzyl)pyrrolidine-2,5-dione]	49%
c1cc(CN2CCc3ccccc32)cc(-c2ccc3ncnc(NC4CC4)c3c2)c1 [Example 292, N-cyclopropyl-6-(3-(indolin-1-ylmethyl)phenyl)quinazoline-4-amine]	95%
CC(C)(C)OC(=O)NCc1cccc(-c2ccc3ncnc(NC4CC4)c3c2)c1 [Example 295, tert-butyl 3-(4-(cyclopropylamino)quinazolin-6-yl)benzylcarbamate]	0%
c1nc(NC2CC2)c2cc(-c3csc(CNC4CC4)c3)ccc2n1 [Example 300, N-cyclopropyl-6-(5-((cyclopropylamino)methyl)thiophen-3-yl)quinazoline-4-amine]	51%
Cc1cc(CNC2CC2)cc(-c2ccc3ncnc(NC4CC4)c3c2)c1 [Example 306, N-cyclopropyl-6-(3-((cyclopropylamino)methyl)-5-methylphenyl)quinazoline-4-amine]	33%
CC(NC1CC1)c1cccc(-c2ccc3ncnc(NC4CC4)c3c2)c1 (centres unmarked) [Example 307, N-cyclopropyl-6-(3-(1-(cyclopropylamino)ethyl)phenyl)quinazoline-4-amine]	37%
CCCCNCc1cccc(-c2ccc3ncnc(NC4CC4)c3c2)c1 [Example 310, 6-(3-((butylamino)methyl)phenyl)-N-cyclopropylquinazoline-4-amine]	50%
c1cc(CNCc2ccco2)cc(-c2ccc3ncnc(NC4CC4)c3c2)c1 [Example 312, N-cyclopropyl-6-(3-((furan-2-ylmethylamino)methyl)phenyl)quinazoline-4-amine dihydrochloride]	58%
N#CCNCc1cccc(-c2ccc3ncnc(NC4CC4)c3c2)c1 [Example 320, 2-(3-(4-(cyclopropylamino)quinazolin-6-yl)benzylamino)acetonitrile]	72%
Fc1c(CNC2CC2)cccc1-c1ccc2ncnc(NC3CC3)c2c1 [Example 324, N-cyclopropyl-6-(3-((cyclopropylamino)methyl)-2-fluorophenyl)quinazoline-4-amine]	55%
O=C(O)CCC(=O)NCc1cccc(-c2ccc3ncnc(Nc4ccccc4)c3c2)c1 [Example 329, 4-oxo-4-(3-(4-(phenylamino)quinazolin-6-yl)benzylamino)butyric acid]	57%
O=C(O)CCC(=O)NCc1cccc(-c2ccc3ncnc(NCC(=O)O)c3c2)c1 [Example 330, 4-(3-(4-(carboxymethylamino)quinazolin-6-yl)benzylamino)-4-oxobutyric acid]	47%
COc1ccc(C(=O)N(Cc2cc(-c3ccc4ncnc(NC5CC5)c4c3)ccc2F)C2CC2)cc1OC [Example 366, N-cyclopropyl-N-(5-(4-(cyclopropylamino)quinazolin-6-yl)-2-fluorobenzyl)-3,4-dimethoxybenzamide]	90%
O=C(c1cccnc1)N(Cc1cc(-c2ccc3ncnc(NC4CC4)c3c2)ccc1F)C1CC1 [Example 367, N-cyclopropyl-N-(5-(4-(cyclopropylamino)quinazolin-6-yl)-2-fluorobenzyl)nicotinamide]	94%
Cc1cc(C(=O)N(Cc2cccc(-c3ccc4ncnc(NCCc5ccccc5)c4c3)c2)C2CC2)n(C)n1 [Example 369, N-cyclopropyl-1,3-dimethyl-N-(3-(4-(phenethylamino)quinazolin-6-yl)benzyl)-1H-pyrazole-5-carboxamide]	34%
O=C(c1ccccn1)N(Cc1cccc(-c2ccc3ncnc(NCCc4ccccc4)c3c2)c1)C1CC1 [Example 370, N-cyclopropyl-N-(3-(4-(phenethylamino)quinazolin-6-yl)benzyl)picolinamide]	52%
O=C(c1cccc(F)c1)N(Cc1cc(-c2ccc3ncnc(NC4CC4)c3c2)ccc1F)C1CC1 [Example 374, N-cyclopropyl-N-(5-(4-(cyclopropylamino)quinazolin-6-yl)-2-fluorobenzyl)-3-fluorobenzamide]	91%

Same assay, conditions: IC50 mGluR5 Receptor (pig) [^3H]-MPEP Bond, 5 nM [3H]-MPEP

SMILES	IC50
ClCCNCc1cccc(-c2ccc3ncnc(NC4CC4)c3c2)c1 [Example 315, 6-(3-((2-chloroethylamino)methyl)phenyl)-N-cyclopropylquinazoline-4-amine]	2740 nM
